Assay results published in the OPERA property sets (Mansouri et al. 2018).
≈ marks a conversion by molar mass, not a printed value.

Settings: for solubility: 20 °C

Compound	logP	solubility [µM]
CCC(C)c1ccc(O)c([N+](=O)[O-])c1 (stereo not given)	3.84	144 (≈ 28.2 µg/mL)
COc1ccc(O)c([N+](=O)[O-])c1	2.02	1450 (≈ 245 µg/mL)
O=Cc1ccc(O)c([N+](=O)[O-])c1	1.48	1120 (≈ 187 µg/mL)
O=[N+]([O-])c1ccc(F)cc1O	1.91	
O=[N+]([O-])c1cc(-c2ccccc2)ccc1O	3.71	38.9 (≈ 8.37 µg/mL)
Cc1cc(O)c([N+](=O)[O-])cc1Cl	2.93	40.7 (≈ 7.64 µg/mL)
O=[N+]([O-])c1cc(Cl)ccc1O	2.46	812 (≈ 141 µg/mL)
Cc1cc(O)ccc1[N+](=O)[O-]	2.48	7760 (≈ 1190 µg/mL)
Cc1cccc(O)c1[N+](=O)[O-]	2.29	
Cc1ccc([N+](=O)[O-])c(O)c1	2.31	1780 (≈ 272 µg/mL)
O=[N+]([O-])c1ccc(O)cc1		83400 (≈ 11600 µg/mL)
O=[N+]([O-])c1cc(C(F)(F)F)ccc1O	2.34	
